{"source": "paper PMC9456400", "about": "(International Journal of Molecular Sciences, 2022)", "origin": "cited, not measured here", "conditions": "cited from earlier work", "key": {"[1]": {"conditions": "pooled safety analysis (n = 295) ref 14, 15"}}}
{"smiles": "C[C@H]1Oc2cc(cnc2N)-c2c(nn(C)c2C#N)CN(C)C(=O)c2ccc(F)cc21", "note": "[lorlatinib, (10R)-7-amino-12-fluoro-2,10,16-trimethyl-15-oxo-10,15,16,17-tetrahydro-2H-8,4-(metheno)pyrazolo [4,3-h][2,5,11]-benzoxadiazacyclotetradecine-3-carbonitrile]", "values": [{"measurement": "Incidence of hypercholesteremia and hypertriglyceridemia", "setting": "lung cancer patients", "result": "> 80", "unit": "%"}, {"measurement": "Hyperlipidemia, median time to onset", "setting": "patients", "result": 15, "unit": "days"}, {"measurement": "Frequency of grade 3 or 4 elevations in total cholesterol and triglycerides (both)", "setting": "phase 2 study B7461001 (NCT01970865) ref 2", "result": 16, "unit": "%"}, {"measurement": "Incidence of hypercholesteremia", "setting": "[1]", "result": 61, "unit": "%"}, {"measurement": "Incidence of hypertriglyceridemia", "setting": "[1]", "result": 82, "unit": "%"}]}
